Tested on: Hs578T multi-cell spheroids, viability
Assay: Anticancer human tumor Hs578T cell line growth inhibition [IpAb];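 also: drug exposure lasted 7 days before readout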
Settings: for IC50: curve of first compound; for viability, T/C: stronger effect = lower value
Outline: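 Multi-cell spheroids of 60% tumour cells, 25% HUVEC and 15% MSC in ultra-low-attachment U-bottom wells, treated with agents combined with ipatasertib or abemaciclib. Half-log ranges top out near clinical Cmax, or 10 microM when Cmax is unknown.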

[1] = second compound 0.01 µM, first compound 0.00949 µM
[2] = second compound 0.01 µM, first compound 0.03 µM
[3] = second compound 0.01 µM, first compound 0.0949 µM
[4] = second compound 0.01 µM, first compound 0.3 µM
[5] = second compound 0.0316 µM, first compound 0.00949 µM
[6] = second compound 0.0316 µM, first compound 0.03 µM
[7] = second compound 0.0316 µM, first compound 0.0949 µM
[8] = second compound 0.0316 µM, first compound 0.3 µM
[9] = second compound 0.1 µM, first compound 0.00949 µM
[10] = second compound 0.1 µM, first compound 0.03 µM
[11] = second compound 0.1 µM, first compound 0.0949 µM
[12] = second compound 0.1 µM, first compound 0.3 µM
[13] = second compound 0.316 µM, first compound 0.00949 µM
[14] = second compound 0.316 µM, first compound 0.03 µM
[15] = second compound 0.316 µM, first compound 0.0949 µM
[16] = second compound 0.316 µM, first compound 0.3 µM
[17] = second compound 1 µM, first compound 0.00949 µM
[18] = second compound 1 µM, first compound 0.03 µM
[19] = second compound 1 µM, first compound 0.0949 µM
[20] = second compound 1 µM, first compound 0.3 µM
[21] = second compound 0.01 µM, first compound 0.0316 µM
[22] = second compound 0.01 µM, first compound 0.1 µM
[23] = second compound 0.01 µM, first compound 0.316 µM
[24] = second compound 0.01 µM, first compound 1 µM
[25] = second compound 0.0316 µM, first compound 0.0316 µM
[26] = second compound 0.0316 µM, first compound 0.1 µM
[27] = second compound 0.0316 µM, first compound 0.316 µM
[28] = second compound 0.0316 µM, first compound 1 µM
[29] = second compound 0.1 µM, first compound 0.0316 µM
[30] = second compound 0.1 µM, first compound 0.1 µM
[31] = second compound 0.1 µM, first compound 0.316 µM
[32] = second compound 0.1 µM, first compound 1 µM
[33] = second compound 0.316 µM, first compound 0.0316 µM
[34] = second compound 0.316 µM, first compound 0.1 µM
[35] = second compound 0.316 µM, first compound 0.316 µM
[36] = second compound 0.316 µM, first compound 1 µM
[37] = second compound 1 µM, first compound 0.0316 µM
[38] = second compound 1 µM, first compound 0.1 µM
[39] = second compound 1 µM, first compound 0.316 µM
[40] = second compound 1 µM, first compound 1 µM
[41] = second compound 0.01 µM, first compound 3.16 µM
[42] = second compound 0.01 µM, first compound 10 µM
[43] = second compound 0.0316 µM, first compound 3.16 µM
[44] = second compound 0.0316 µM, first compound 10 µM
[45] = second compound 0.1 µM, first compound 3.16 µM
[46] = second compound 0.1 µM, first compound 10 µM
[47] = second compound 0.316 µM, first compound 3.16 µM
[48] = second compound 0.316 µM, first compound 10 µM
[49] = second compound 1 µM, first compound 3.16 µM
[50] = second compound 1 µM, first compound 10 µM

## CC(=O)c1c(C)c2cnc(Nc3ccc(N4CCNCC4)cn3)nc2n(C2CCCC2)c1=O + CCN1CCN(Cc2ccc(Nc3ncc(F)c(-c4cc(F)c5nc(C)n(C(C)C)c5c4)n3)nc2)CC1
Second compound 0.01 µM
  IC50: > 300 nM
Second compound 0.0316 µM
  IC50: > 300 nM
Second compound 0.1 µM
  IC50: > 300 nM
Second compound 0.316 µM
  IC50: > 300 nM
Second compound 1 µM
  IC50: > 300 nM
Second compound 0.01 µM, first compound 0.000949 µM
  viability, T/C: 106%
Second compound 0.01 µM, first compound 0.003 µM
  viability, T/C: 95.1%
[1]
  viability, T/C: 95%
[2]
  viability, T/C: 81.9%
[3]
  viability, T/C: 77.5%
[4]
  viability, T/C: 63.4%
Second compound 0.0316 µM, first compound 0.000949 µM
  viability, T/C: 91.3%
Second compound 0.0316 µM, first compound 0.003 µM
  viability, T/C: 89.1%
[5]
  viability, T/C: 90.3%
[6]
  viability, T/C: 73.3%
[7]
  viability, T/C: 69.3%
[8]
  viability, T/C: 60.5%
Second compound 0.1 µM, first compound 0.000949 µM
  viability, T/C: 75.6%
Second compound 0.1 µM, first compound 0.003 µM
  viability, T/C: 80.8%
[9]
  viability, T/C: 81.8%
[10]
  viability, T/C: 80.8%
[11]
  viability, T/C: 66%
[12]
  viability, T/C: 73.3%
Second compound 0.316 µM, first compound 0.000949 µM
  viability, T/C: 81.3%
Second compound 0.316 µM, first compound 0.003 µM
  viability, T/C: 85.2%
[13]
  viability, T/C: 82.2%
[14]
  viability, T/C: 79.8%
[15]
  viability, T/C: 70.7%
[16]
  viability, T/C: 68%
Second compound 1 µM, first compound 0.000949 µM
  viability, T/C: 93%
Second compound 1 µM, first compound 0.003 µM
  viability, T/C: 98.5%
[17]
  viability, T/C: 93.7%
[18]
  viability, T/C: 96.7%
[19]
  viability, T/C: 89.5%
[20]
  viability, T/C: 89%

## CC(C)(C)c1cnc(CSc2cnc(NC(=O)C3CCNCC3)s2)o1 + CCN1CCN(Cc2ccc(Nc3ncc(F)c(-c4cc(F)c5nc(C)n(C(C)C)c5c4)n3)nc2)CC1
Second compound 0.01 µM
  IC50: 181 nM
Second compound 0.0316 µM
  IC50: 181 nM
Second compound 0.1 µM
  IC50: 167 nM
Second compound 0.316 µM
  IC50: 169 nM
Second compound 1 µM
  IC50: 115 nM
[1]
  viability, T/C: 101%
[2]
  viability, T/C: 114%
[3]
  viability, T/C: 114%
[4]
  viability, T/C: 3.69%
Second compound 0.01 µM, first compound 0.949 µM
  viability, T/C: 3.37%
Second compound 0.01 µM, first compound 3 µM
  viability, T/C: 3.55%
[5]
  viability, T/C: 99%
[6]
  viability, T/C: 113%
[7]
  viability, T/C: 118%
[8]
  viability, T/C: 2.94%
Second compound 0.0316 µM, first compound 0.949 µM
  viability, T/C: 2.55%
Second compound 0.0316 µM, first compound 3 µM
  viability, T/C: 2.82%
[9]
  viability, T/C: 100%
[10]
  viability, T/C: 99.9%
[11]
  viability, T/C: 95.3%
[12]
  viability, T/C: 2.53%
Second compound 0.1 µM, first compound 0.949 µM
  viability, T/C: 2.48%
Second compound 0.1 µM, first compound 3 µM
  viability, T/C: 3.11%
[13]
  viability, T/C: 104%
[14]
  viability, T/C: 104%
[15]
  viability, T/C: 97.2%
[16]
  viability, T/C: 2.46%
Second compound 0.316 µM, first compound 0.949 µM
  viability, T/C: 3.54%
Second compound 0.316 µM, first compound 3 µM
  viability, T/C: 3.59%
[17]
  viability, T/C: 109%
[18]
  viability, T/C: 107%
[19]
  viability, T/C: 59.6%
[20]
  viability, T/C: 2.32%
Second compound 1 µM, first compound 0.949 µM
  viability, T/C: 2.79%
Second compound 1 µM, first compound 3 µM
  viability, T/C: 4.16%

## COc1c(OCCCN2CCOCC2)ccc2c3n(c(=NC(=O)c4cnc(N)nc4)nc12)CCN3 + CCN1CCN(Cc2ccc(Nc3ncc(F)c(-c4cc(F)c5nc(C)n(C(C)C)c5c4)n3)nc2)CC1
Second compound 0.01 µM
  IC50: 22.8 nM
Second compound 0.0316 µM
  IC50: 20.7 nM
Second compound 0.1 µM
  IC50: 15.2 nM
Second compound 0.316 µM
  IC50: 17.1 nM
Second compound 1 µM
  IC50: 25.3 nM
Second compound 0.01 µM, first compound 0.00316 µM
  viability, T/C: 88.7%
Second compound 0.01 µM, first compound 0.01 µM
  viability, T/C: 65.9%
[21]
  viability, T/C: 43.3%
[22]
  viability, T/C: 26.9%
[23]
  viability, T/C: 16%
[24]
  viability, T/C: 8.09%
Second compound 0.0316 µM, first compound 0.00316 µM
  viability, T/C: 75.6%
Second compound 0.0316 µM, first compound 0.01 µM
  viability, T/C: 63.6%
[25]
  viability, T/C: 40.5%
[26]
  viability, T/C: 28%
[27]
  viability, T/C: 11.6%
[28]
  viability, T/C: 7.23%
Second compound 0.1 µM, first compound 0.00316 µM
  viability, T/C: 75.8%
Second compound 0.1 µM, first compound 0.01 µM
  viability, T/C: 53.5%
[29]
  viability, T/C: 40.9%
[30]
  viability, T/C: 26.8%
[31]
  viability, T/C: 13.8%
[32]
  viability, T/C: 6.99%
Second compound 0.316 µM, first compound 0.00316 µM
  viability, T/C: 82.1%
Second compound 0.316 µM, first compound 0.01 µM
  viability, T/C: 55.8%
[33]
  viability, T/C: 42.1%
[34]
  viability, T/C: 26.1%
[35]
  viability, T/C: 15.5%
[36]
  viability, T/C: 7.2%
Second compound 1 µM, first compound 0.00316 µM
  viability, T/C: 91.5%
Second compound 1 µM, first compound 0.01 µM
  viability, T/C: 67.4%
[37]
  viability, T/C: 43.1%
[38]
  viability, T/C: 32.5%
[39]
  viability, T/C: 20.1%
[40]
  viability, T/C: 9.99%

## Cc1nc(NC(=O)N2CCCC2C(N)=O)sc1-c1ccnc(C(C)(C)C(F)(F)F)c1 (stereo not given) + CCN1CCN(Cc2ccc(Nc3ncc(F)c(-c4cc(F)c5nc(C)n(C(C)C)c5c4)n3)nc2)CC1
Second compound 0.01 µM
  IC50: 1780 nM
Second compound 0.0316 µM
  IC50: 856 nM
Second compound 0.1 µM
  IC50: 804 nM
Second compound 0.316 µM
  IC50: 1070 nM
Second compound 1 µM
  IC50: 1230 nM
[21]
  viability, T/C: 98.5%
[22]
  viability, T/C: 87.2%
[23]
  viability, T/C: 75.9%
[24]
  viability, T/C: 61.1%
[41]
  viability, T/C: 40.4%
[42]
  viability, T/C: 11.9%
[25]
  viability, T/C: 88.5%
[26]
  viability, T/C: 72.3%
[27]
  viability, T/C: 57.2%
[28]
  viability, T/C: 51.2%
[43]
  viability, T/C: 38.7%
[44]
  viability, T/C: 11.7%
[29]
  viability, T/C: 77%
[30]
  viability, T/C: 68.4%
[31]
  viability, T/C: 60.6%
[32]
  viability, T/C: 43.9%
[45]
  viability, T/C: 37.3%
[46]
  viability, T/C: 11.4%
[33]
  viability, T/C: 68.5%
[34]
  viability, T/C: 66.7%
[35]
  viability, T/C: 60.4%
[36]
  viability, T/C: 47.7%
[47]
  viability, T/C: 39.8%
[48]
  viability, T/C: 17%
[37]
  viability, T/C: 92.1%
[38]
  viability, T/C: 83.3%
[39]
  viability, T/C: 66.7%
[40]
  viability, T/C: 56.5%
[49]
  viability, T/C: 34%
[50]
  viability, T/C: 23.5%

## Cn1nccc1Nc1nccc(-c2ccn(C(CO)c3ccc(Cl)c(F)c3)c(=O)c2)n1 (stereo not given) + CCN1CCN(Cc2ccc(Nc3ncc(F)c(-c4cc(F)c5nc(C)n(C(C)C)c5c4)n3)nc2)CC1
Second compound 0.01 µM
  IC50: 5690 nM
Second compound 0.0316 µM
  IC50: 4080 nM
Second compound 0.1 µM
  IC50: 3490 nM
Second compound 0.316 µM
  IC50: 6160 nM
Second compound 1 µM
  IC50: 2060 nM
[21]
  viability, T/C: 100%
[22]
  viability, T/C: 109%
[23]
  viability, T/C: 110%
[24]
  viability, T/C: 88.8%
[41]
  viability, T/C: 64.1%
[42]
  viability, T/C: 37.3%
[25]
  viability, T/C: 92.2%
[26]
  viability, T/C: 99.8%
[27]
  viability, T/C: 96.3%
[28]
  viability, T/C: 73.5%
[43]
  viability, T/C: 61.6%
[44]
  viability, T/C: 18.1%
[29]
  viability, T/C: 79.2%
[30]
  viability, T/C: 86.7%
[31]
  viability, T/C: 88.6%
[32]
  viability, T/C: 59.6%
[45]
  viability, T/C: 56.5%
[46]
  viability, T/C: 27.6%
[33]
  viability, T/C: 79%
[34]
  viability, T/C: 86.3%
[35]
  viability, T/C: 86%
[36]
  viability, T/C: 71.3%
[47]
  viability, T/C: 63.8%
[48]
  viability, T/C: 40.2%
[37]
  viability, T/C: 81.8%
[38]
  viability, T/C: 79.7%
[39]
  viability, T/C: 85.5%
[40]
  viability, T/C: 58.8%
[49]
  viability, T/C: 50.4%
[50]
  viability, T/C: 39.2%

Reference: PubChem BioAssay AID2060331 (Molecular Pharmacology Branch, DTP, NCI, 2025)
